Tests used:
[1] = molecular target: T1, 5-hydroxytryptamine receptor 1A (Homo sapiens, UniProt P08908); experiment: In vitro inhibitory concentration required against [3H]8-OH-DPAT binding to cloned human 5-hydroxytryptamine 1A receptor
T1 sequence (P08908 whole entry): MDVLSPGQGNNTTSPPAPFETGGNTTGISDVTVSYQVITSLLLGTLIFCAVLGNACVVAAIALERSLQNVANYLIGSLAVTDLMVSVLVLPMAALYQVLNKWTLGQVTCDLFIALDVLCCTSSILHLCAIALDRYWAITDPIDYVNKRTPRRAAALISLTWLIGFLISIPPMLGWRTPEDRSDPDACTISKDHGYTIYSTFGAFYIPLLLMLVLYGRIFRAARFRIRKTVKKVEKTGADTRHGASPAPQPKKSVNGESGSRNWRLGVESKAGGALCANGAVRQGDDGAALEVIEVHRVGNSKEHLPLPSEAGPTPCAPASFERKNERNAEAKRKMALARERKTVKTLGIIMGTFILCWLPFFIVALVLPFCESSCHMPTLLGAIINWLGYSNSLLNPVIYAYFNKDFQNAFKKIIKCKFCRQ

[2] = molecular target: T2, 5-hydroxytryptamine receptor 2A (Rattus norvegicus, UniProt P14842); experiment: In vitro relative agonist activity against 5-hydroxytryptamine 2A using PI assay in rat vascular smooth muscle cells; format: functional
T2 sequence (P14842 whole entry): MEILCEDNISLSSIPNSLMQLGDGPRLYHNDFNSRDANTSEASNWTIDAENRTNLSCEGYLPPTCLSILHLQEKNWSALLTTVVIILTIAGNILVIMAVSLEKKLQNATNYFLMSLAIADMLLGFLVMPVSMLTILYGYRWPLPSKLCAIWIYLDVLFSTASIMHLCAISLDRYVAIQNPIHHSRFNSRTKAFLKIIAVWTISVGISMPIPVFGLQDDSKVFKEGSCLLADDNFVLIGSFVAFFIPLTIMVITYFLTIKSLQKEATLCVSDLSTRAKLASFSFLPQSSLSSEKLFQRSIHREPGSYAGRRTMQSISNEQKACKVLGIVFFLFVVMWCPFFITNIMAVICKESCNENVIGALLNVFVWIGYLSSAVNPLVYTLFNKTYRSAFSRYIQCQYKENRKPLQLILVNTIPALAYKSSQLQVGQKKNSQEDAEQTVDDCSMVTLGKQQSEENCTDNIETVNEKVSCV

[3] = molecular target: 5-hydroxytryptamine receptor 2A (Rattus norvegicus) (UniProt P14842); experiment: In vitro efficacy against rat 5-hydroxytryptamine 2A receptor was determined by using CA+ assay (Emax)
Chain of 5-hydroxytryptamine receptor 2A (Rattus norvegicus) (P14842 whole entry): as above

[4] = molecular target: 5-hydroxytryptamine receptor 2A (Rattus norvegicus) (UniProt P14842); experiment: In vitro efficacy against rat 5-hydroxytryptamine 2A receptor determined by using PI assay (Emax)
[5] = molecular target: T2, 5-hydroxytryptamine receptor 2A; experiment: In vitro inhibition of [125I]DOI binding to 5-hydroxytryptamine 2A receptor in rat cerebral cortex; format: tissue-based
[6] = molecular target: T3, 5-hydroxytryptamine receptor 2A (Homo sapiens, UniProt P28223); experiment: Inhibitory constant determined against cloned human 5-hydroxytryptamine 2A receptor using with [125I]- DOI radioligand
Target sequence in this assay (P28223 whole entry): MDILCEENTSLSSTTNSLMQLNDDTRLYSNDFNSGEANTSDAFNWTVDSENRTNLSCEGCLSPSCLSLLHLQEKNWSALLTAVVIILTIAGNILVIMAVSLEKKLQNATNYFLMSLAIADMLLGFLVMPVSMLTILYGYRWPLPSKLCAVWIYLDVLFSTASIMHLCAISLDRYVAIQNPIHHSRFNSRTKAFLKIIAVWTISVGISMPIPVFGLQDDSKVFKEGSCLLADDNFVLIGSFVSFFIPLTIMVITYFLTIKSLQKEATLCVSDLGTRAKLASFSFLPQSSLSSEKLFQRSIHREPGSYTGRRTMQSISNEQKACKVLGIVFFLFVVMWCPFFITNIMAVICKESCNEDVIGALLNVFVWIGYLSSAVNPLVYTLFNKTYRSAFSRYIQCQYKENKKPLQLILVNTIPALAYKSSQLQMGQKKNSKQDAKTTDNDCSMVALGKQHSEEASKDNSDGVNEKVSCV

[7] = molecular target: T2, 5-hydroxytryptamine receptor 2A; experiment: In vitro inhibitory constant against [125I]DOI binding to 5-hydroxytryptamine 2A receptor in rat cerebral cortex; format: tissue-based
[8] = molecular target: T4, 5-hydroxytryptamine receptor 2C (Homo sapiens, UniProt P28335); experiment: Inhibitory constant against cloned human 5-hydroxytryptamine 2C receptor using with [125I]- DOI radioligand
T4 sequence (P28335 whole entry): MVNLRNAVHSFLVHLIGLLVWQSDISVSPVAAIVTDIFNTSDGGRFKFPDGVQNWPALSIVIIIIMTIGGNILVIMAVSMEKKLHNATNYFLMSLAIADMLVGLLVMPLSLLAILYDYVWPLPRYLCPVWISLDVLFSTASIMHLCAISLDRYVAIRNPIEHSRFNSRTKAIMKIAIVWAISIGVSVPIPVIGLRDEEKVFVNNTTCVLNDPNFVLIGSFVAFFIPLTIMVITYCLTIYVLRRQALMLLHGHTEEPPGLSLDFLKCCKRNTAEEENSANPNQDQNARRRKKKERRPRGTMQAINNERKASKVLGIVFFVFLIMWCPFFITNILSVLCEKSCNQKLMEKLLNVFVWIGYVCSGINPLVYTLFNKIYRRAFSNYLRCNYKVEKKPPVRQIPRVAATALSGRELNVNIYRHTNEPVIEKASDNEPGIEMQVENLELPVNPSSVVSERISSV

[9] = molecular target: 5-hydroxytryptamine receptor 2B (Homo sapiens, UniProt P41595); experiment: Inhibitory constant against cloned human 5-hydroxytryptamine 2B receptor using with [125I]- DOI radioligand
Chain of 5-hydroxytryptamine receptor 2B (P41595 whole entry): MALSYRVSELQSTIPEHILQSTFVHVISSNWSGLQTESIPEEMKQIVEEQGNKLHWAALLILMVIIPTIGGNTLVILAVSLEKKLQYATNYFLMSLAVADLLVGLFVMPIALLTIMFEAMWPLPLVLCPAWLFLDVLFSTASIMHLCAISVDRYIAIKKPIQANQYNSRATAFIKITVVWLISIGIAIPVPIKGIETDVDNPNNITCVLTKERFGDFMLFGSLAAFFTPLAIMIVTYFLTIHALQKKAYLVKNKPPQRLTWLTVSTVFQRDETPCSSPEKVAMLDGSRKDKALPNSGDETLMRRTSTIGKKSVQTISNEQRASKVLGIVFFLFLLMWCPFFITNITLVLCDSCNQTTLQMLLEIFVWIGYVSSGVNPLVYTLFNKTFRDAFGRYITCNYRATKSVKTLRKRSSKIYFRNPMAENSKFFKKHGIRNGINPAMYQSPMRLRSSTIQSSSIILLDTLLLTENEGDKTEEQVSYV

[10] = molecular target: T1, 5-hydroxytryptamine receptor 1A; experiment: Tested for functional response on CHO cells expressing cloned human 5-hydroxytryptamine 1A receptor; format: cell-based
[11] = molecular target: T3, 5-hydroxytryptamine receptor 2A; experiment: Inhibitory constant against cloned human 5-hydroxytryptamine 2A receptor using with [125I]- DOI radioligand
[12] = test system: Monkey; experiment: Tested for the ability to lower IOP in conscious cynomolgus monkeys with laser-induced ocular hypertension after 1 hr postdose of the compound; format: functional, Cercopithecidae, Eye
[13] = test system: Monkey; experiment: Tested for the ability to lower IOP in conscious cynomolgus monkeys with laser-induced ocular hypertension after 3h postdose of the compound; format: functional, Cercopithecidae, Eye
[14] = test system: Monkey; experiment: Tested for the ability to lower IOP in conscious cynomolgus monkeys with laser-induced ocular hypertension after 6 hr postdose of the compound; format: functional, Cercopithecidae, Eye
[15] = molecular target: 5-hydroxytryptamine receptor 1B (Homo sapiens, UniProt P28222); experiment: Inhibitory constant against 5-hydroxytryptamine 1B receptor using with [125I]- cyanopindolol radioligand
Chain of 5-hydroxytryptamine receptor 1B (P28222 whole entry): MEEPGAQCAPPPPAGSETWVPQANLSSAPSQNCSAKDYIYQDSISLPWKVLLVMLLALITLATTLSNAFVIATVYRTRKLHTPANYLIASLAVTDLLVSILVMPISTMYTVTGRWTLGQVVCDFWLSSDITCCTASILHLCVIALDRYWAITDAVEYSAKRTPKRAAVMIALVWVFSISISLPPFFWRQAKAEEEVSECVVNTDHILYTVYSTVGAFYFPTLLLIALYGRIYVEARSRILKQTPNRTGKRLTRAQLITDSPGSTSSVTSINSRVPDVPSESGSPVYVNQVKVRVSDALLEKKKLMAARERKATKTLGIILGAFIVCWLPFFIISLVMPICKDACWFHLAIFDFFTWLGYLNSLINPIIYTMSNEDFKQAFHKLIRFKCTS

[16] = molecular target: 5-hydroxytryptamine receptor 1D (Homo sapiens, UniProt P28221); experiment: Inhibitory constant against human 5-hydroxytryptamine 1D receptor using [3H]5-CT radioligand
[17] = molecular target: 5-hydroxytryptamine receptor 6 (Homo sapiens, UniProt P50406); experiment: Inhibitory constant against human 5-hydroxytryptamine 6 receptor using [3H]LSD radioligand
[18] = molecular target: 5-hydroxytryptamine receptor 3A (Homo sapiens, UniProt P46098); experiment: Inhibitory constant against 5-hydroxytryptamine 3 receptor using [3H]GR-65630 radioligand
Chain of 5-hydroxytryptamine receptor 3A (P46098 whole entry): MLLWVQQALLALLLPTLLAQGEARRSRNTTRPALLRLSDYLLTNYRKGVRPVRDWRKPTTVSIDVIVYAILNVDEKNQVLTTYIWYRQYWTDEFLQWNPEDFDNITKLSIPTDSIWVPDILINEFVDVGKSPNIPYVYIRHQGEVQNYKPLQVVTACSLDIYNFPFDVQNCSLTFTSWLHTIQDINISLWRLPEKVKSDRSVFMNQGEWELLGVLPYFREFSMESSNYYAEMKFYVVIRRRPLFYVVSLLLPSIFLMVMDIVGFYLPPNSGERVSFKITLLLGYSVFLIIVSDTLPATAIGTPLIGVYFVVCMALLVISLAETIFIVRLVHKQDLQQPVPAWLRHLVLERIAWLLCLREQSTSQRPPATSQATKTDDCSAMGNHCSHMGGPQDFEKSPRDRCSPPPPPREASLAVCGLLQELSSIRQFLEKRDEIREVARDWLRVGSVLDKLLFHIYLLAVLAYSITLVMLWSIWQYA

[19] = molecular target: 5-hydroxytryptamine receptor 4 (Homo sapiens, UniProt Q13639); experiment: Inhibitory constant against 5-hydroxytryptamine 4 receptor using [3H]GR-113808 radioligand
[20] = molecular target: 5-hydroxytryptamine receptor 5A (Homo sapiens, UniProt P47898); experiment: Inhibitory constant against human 5-hydroxytryptamine 5A receptor using [3H]LSD radioligand
Chain of 5-hydroxytryptamine receptor 5A (P47898 whole entry, looked up): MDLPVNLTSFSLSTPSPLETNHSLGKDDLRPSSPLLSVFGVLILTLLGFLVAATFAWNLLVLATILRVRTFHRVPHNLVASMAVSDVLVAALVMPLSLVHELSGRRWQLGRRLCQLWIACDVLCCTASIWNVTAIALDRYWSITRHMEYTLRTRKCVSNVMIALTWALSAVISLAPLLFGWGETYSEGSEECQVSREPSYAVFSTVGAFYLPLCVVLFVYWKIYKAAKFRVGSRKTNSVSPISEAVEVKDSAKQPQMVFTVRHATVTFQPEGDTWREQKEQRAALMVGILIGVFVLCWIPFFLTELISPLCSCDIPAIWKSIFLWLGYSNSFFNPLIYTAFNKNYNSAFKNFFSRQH

[21] = molecular target: Alpha-2A adrenergic receptor (Homo sapiens, UniProt P08913); experiment: (§1) Inhibitory concentration required against Alpha-2A adrenergic receptor using [3H]clonidine radioligand
Chain of Alpha-2A adrenergic receptor (P08913 whole entry): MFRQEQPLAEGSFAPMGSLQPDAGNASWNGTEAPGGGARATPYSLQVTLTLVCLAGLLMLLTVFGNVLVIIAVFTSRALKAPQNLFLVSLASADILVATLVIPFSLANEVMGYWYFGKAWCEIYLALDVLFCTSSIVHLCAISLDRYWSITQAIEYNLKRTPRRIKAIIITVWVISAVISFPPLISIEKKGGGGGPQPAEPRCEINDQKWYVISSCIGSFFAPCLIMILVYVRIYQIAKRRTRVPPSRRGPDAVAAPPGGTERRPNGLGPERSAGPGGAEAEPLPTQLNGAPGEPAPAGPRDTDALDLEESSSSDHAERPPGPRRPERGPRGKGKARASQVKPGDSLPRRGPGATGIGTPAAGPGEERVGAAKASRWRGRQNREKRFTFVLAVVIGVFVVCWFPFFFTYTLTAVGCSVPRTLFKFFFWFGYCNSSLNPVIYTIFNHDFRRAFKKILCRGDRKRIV

[22] = molecular target: T5, Alpha-2C adrenergic receptor (Homo sapiens, UniProt P18825); experiment: as §1
[23] = molecular target: Alpha-1B adrenergic receptor (Rattus norvegicus, UniProt P15823); experiment: Inhibitory constant against Alpha-1B adrenergic radioligand
[24] = molecular target: Alpha-2B adrenergic receptor (Rattus norvegicus, UniProt P19328); experiment: Inhibitory constant against Alpha-2B adrenergic receptor using [3H]MK-912 radioligand
Chain of Alpha-2B adrenergic receptor (P19328 whole entry): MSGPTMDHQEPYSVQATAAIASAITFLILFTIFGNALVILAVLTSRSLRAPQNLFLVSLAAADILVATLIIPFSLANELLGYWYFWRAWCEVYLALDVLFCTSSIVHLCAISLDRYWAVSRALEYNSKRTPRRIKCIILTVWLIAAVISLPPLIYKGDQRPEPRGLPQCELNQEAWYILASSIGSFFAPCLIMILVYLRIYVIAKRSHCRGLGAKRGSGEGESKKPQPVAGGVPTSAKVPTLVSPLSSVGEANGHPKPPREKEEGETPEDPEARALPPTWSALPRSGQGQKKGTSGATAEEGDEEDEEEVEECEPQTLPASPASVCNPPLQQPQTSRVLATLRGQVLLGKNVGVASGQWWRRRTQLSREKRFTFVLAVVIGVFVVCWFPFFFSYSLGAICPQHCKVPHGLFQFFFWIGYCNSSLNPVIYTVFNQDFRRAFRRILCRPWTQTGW

[25] = molecular target: T6, Alpha-1A adrenergic receptor (Rattus norvegicus, UniProt P43140); experiment: Inhibitory constant against alpha-1A receptor using [3H]-7-MeO prazosin radioligand
T6 sequence (P43140 whole entry): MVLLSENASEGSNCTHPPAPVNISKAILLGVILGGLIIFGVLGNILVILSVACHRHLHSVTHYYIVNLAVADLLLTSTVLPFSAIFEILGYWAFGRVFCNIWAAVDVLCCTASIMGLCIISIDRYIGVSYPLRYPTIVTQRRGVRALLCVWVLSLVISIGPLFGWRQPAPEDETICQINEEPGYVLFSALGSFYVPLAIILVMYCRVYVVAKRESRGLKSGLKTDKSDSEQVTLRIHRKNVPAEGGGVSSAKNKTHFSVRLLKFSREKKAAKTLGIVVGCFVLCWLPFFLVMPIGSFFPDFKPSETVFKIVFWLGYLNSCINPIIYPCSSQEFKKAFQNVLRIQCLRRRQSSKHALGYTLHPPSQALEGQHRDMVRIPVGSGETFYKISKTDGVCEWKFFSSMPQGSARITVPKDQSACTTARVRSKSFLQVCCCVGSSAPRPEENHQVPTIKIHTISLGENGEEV

[26] = molecular target: Sodium-dependent noradrenaline transporter (Homo sapiens, UniProt P23975); experiment: Inhibitory constant against norepinephrine transporter receptor using [3H]radioligand
Chain of Sodium-dependent noradrenaline transporter (P23975 whole entry): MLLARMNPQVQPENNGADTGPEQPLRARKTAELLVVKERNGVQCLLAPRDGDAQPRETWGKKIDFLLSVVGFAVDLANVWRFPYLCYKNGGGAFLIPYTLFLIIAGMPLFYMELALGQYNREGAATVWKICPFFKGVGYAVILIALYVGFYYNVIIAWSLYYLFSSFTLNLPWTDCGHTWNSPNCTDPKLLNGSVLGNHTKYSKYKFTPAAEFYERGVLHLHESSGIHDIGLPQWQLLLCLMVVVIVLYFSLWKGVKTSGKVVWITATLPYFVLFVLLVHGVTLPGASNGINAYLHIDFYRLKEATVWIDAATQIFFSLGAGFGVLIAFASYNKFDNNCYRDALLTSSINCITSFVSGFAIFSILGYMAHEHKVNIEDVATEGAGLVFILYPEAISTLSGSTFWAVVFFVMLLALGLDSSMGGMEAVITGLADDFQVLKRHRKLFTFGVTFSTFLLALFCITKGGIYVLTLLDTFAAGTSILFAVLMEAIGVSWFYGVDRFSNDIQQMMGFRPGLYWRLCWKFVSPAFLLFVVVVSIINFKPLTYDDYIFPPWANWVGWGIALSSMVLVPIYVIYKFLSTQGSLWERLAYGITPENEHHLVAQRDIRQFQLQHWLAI

[27] = molecular target: Sodium-dependent serotonin transporter (Homo sapiens, UniProt P31645); experiment: Inhibitory constant against human serotonin transporter using [3H]N-Me-citalopram radioligand
Chain of Sodium-dependent serotonin transporter (P31645 whole entry): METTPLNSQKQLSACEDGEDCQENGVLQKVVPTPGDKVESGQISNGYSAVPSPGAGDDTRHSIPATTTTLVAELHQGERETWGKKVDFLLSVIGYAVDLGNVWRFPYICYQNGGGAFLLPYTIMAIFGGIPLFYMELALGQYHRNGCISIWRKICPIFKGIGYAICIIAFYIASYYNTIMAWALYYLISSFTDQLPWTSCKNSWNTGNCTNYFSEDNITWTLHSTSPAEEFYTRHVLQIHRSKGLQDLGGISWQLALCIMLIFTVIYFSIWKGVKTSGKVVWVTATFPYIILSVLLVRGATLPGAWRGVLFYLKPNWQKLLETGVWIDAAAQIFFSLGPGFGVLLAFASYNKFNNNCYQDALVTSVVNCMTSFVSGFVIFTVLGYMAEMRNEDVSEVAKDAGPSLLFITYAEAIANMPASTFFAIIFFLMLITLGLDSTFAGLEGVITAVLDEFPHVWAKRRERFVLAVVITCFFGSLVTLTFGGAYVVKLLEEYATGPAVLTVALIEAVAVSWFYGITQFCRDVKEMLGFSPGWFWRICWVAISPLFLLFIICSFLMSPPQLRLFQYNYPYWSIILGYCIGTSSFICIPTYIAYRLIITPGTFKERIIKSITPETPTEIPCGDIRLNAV

[28] = molecular target: 5-hydroxytryptamine receptor 7 (Homo sapiens, UniProt P34969); experiment: Inhibitory constant against human 5-hydroxytryptamine 7 receptor using [3H]LSD radioligand
[29] = molecular target: T6, Alpha-1A adrenergic receptor; experiment: Inhibitory constant against Alpha-1A adrenergic receptor using [3H]-7-MeO prazosin radioligand
[30] = molecular target: T6, Alpha-1A adrenergic receptor; experiment: Inhibitory constant against Alpha-1B adrenergic receptor using [3H]-7-MeO prazosin radioligand
[31] = molecular target: T5, Alpha-2C adrenergic receptor; experiment: Inhibitory concentration required against Alpha-2C adrenergic receptor using [3H]clonidine radioligand

Compound	IC50 [1]	EC50 [2]	Efficacy [3]	Efficacy [4]	IC50 [5]	Ki [6]	Ki [7]	Ki [8]	Ki [9]	EC50 [10]	Ki [11]	Reduction [12]	Reduction [13]	Reduction [14]	other results
Cn1cc(CCN)c2c3c(ccc21)OCCC3	8410 nM	213 nM	70%	96%	2.8 nM	8.2 nM	1.1 nM								
NCCc1c[nH]c2ccc3c(c12)CCCO3	287 nM	181 nM	99%	99%	1.8 nM	4.9 nM	0.6 nM	6.3 nM	14 nM						
CC(N)Cc1c[nH]c2ccc(O)cc12 (stereo not given)	19.6 nM		99%	98%					13 nM	378 nM	12 nM				
CN(C)CCc1c[nH]c2ccc3c(c12)CCCO3	562 nM		47%	63%		17 nM		16 nM	26 nM						
C[C@@H](N)Cc1c[nH]c2ccc3c(c12)CCCO3	8650 nM	292 nM	71%	83%	1.5 nM	3.6 nM	0.5 nM	20 nM	19 nM			<12.7%	<24.8%	<32.5%	
COc1cc(C[C@@H](C)N)c(OC)cc1I		27.7 nM	33%		0.4 nM		0.1 nM	4 nM	18 nM			11%	25.3%	34.4%	
C[C@H](N)Cc1c[nH]c2ccc3c(c12)CCCO3	> 10000 nM	80.1 nM	103%	90%	0.5 nM		0.2 nM	3.4 nM	5.3 nM		2 nM	<18.1%	<33.2%	<37%	Ki [15]: 3300 nM; Ki [16]: > 10000 nM; Ki [17]: 2200 nM; Ki [18]: > 10000 nM; Ki [19]: 1700 nM; Ki [20]: > 10000 nM; IC50 [21]: 19000 nM; IC50 [22]: 14000 nM; Ki [23]: > 10000 nM; Ki [24]: > 10000 nM; Ki [25]: > 10000 nM; Ki [26]: > 10000 nM; Ki [27]: > 10000 nM
CC(N)Cc1cn(C)c2ccc3c(c12)CCCO3 (stereo not given)	12200 nM	134 nM	79%	102%	0.5 nM		0.2 nM	2.7 nM	11 nM	> 10000 nM	28 nM	<18.8%	<28%	<26.1%	
COc1ccc2[nH]cc(CC(C)N)c2c1 (stereo not given)	86.4 nM	285 nM	96%	107%	4.4 nM		1.6 nM	8.3 nM	7.8 nM	564 nM	4.6 nM	21.6%	35.2%	33.4%	
CC(N)Cc1c[nH]c2ccc3c(c12)CCCO3 (stereo not given)	10900 nM		97%	81%	0.7 nM		0.3 nM	5.5 nM	13 nM	> 10000 nM	3.6 nM	<16%	<28%	<22.9%	Ki [15]: > 10000 nM; Ki [17]: 400 nM; Ki [18]: > 10000 nM; Ki [19]: 1800 nM; Ki [20]: 1900 nM; Ki [28]: 24000 nM; IC50 [21]: > 10000 nM; Ki [24]: 10000 nM; Ki [29]: > 30000 nM; Ki [30]: > 30000 nM; IC50 [31]: > 30000 nM; Ki [26]: > 30000 nM; Ki [27]: > 10000 nM

— ChEMBL document CHEMBL1145094, “A novel and selective 5-HT2 receptor agonist with ocular hypotensive activity: (S)-(+)-1-(2-aminopropyl)-8,9-dihydropyrano[3,2-e]indole” (J Med Chem, 2003)
